Results as given in PMC12683216, “Using High‐Throughput Screening to Identify Crosslinking Peptides That Control Cell‐Mediated Matrix Degradation” (Advanced Healthcare Materials, 2025).
Where two headings read alike, the source gives them in different places. Where a SMILES comes first, the peptide text is derived from it. [ ]: non-standard residue; d: D form. βAla = NCCC(=O)O

Tests used:
Format in all cases: in vitro ADME, human
[1] = Soluble peptide degradation, Cells condition (LC-MS); details: human; for remaining at 24 h, 50 µM: Figure 3C, individually synthesized soluble peptide, N = 6
Procedure, shortened: (§1)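 Pooled synthetic TAILS-derived peptides added to hUVEC or hMSC cultures (Cells) or cell-free conditioned media (Media); MMP-14 inhibitor NSC 405 020 at 10 µM final. Samples taken at 0 and 24 h, acidified, analysed by LC-MS; peak areas normalised to 50 µM βFβA6 internal standard, 24 h/0 h gives fraction remaining.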

MMP-14 = experiment: as above; details: human
Procedure, shortened: as §1

hMSCs = experiment: as above; details: for peptide remaining after 24 h, Cells condition, hMSCs: 50 µM soluble peptide; for Fraction of peptide remaining after 24 hours: hMSC Cells: individually synthesized soluble peptide, media on hMSCs, ratio to βFβA6
Procedure, shortened: as §1

[2] = hMSCs in culture with fresh media (Cells condition), Figure 2B heatmap, pooled TAILS-derived soluble peptides (Ac-βAla N-terminus, βAla-amide C-terminus) in media on hMSCs (36000 per well, 48 well plate, 500 µL), 24 h, LC-MS, ratio to βFβA6 internal standard, 24 h / 0 h, N = 5, read-out: Fraction of peptide remaining at 24 hours: hMSC Cells
[3] = hUVECs in culture with fresh media (Cells condition), Figure 2B heatmap, pooled TAILS-derived soluble peptides in media on hUVECs (75000 per well, 48 well plate, 500 µL), 24 h, LC-MS, ratio to βFβA6 internal standard, 24 h / 0 h, N = 5, read-out: Fraction of peptide remaining at 24 hours: hUVEC Cells
[4] = hUVECs in culture with fresh media (Cells condition), media on hUVECs, 24 h, LC-MS, ratio to βFβA6, read-out: Fraction of peptide remaining after 24 hours: hUVEC Cells
[5] = with NSC 405 020 (MMP-14 inhibitor), Figure 3C, 50 µM peptide, media on hMSCs with MMP-14 inhibitor NSC 405 020 10 µM, 24 h, LC-MS, N = 6, read-out: Fraction of peptide remaining after 24 hours: hMSC +Inhibitor
[6] = with NSC 405 020 (MMP-14 inhibitor), Figure 3C, 50 µM peptide, media on hUVECs with MMP-14 inhibitor NSC 405 020 10 µM, 24 h, LC-MS, N = 6, read-out: Fraction of peptide remaining after 24 hours: hUVEC +Inhibitor
[7] = Figure 3C, 50 µM, 24 h, LC-MS, N = 6

remaining at 24 h ([1]; cells or culture medium) [%]	remaining at 24 h ([1]; cells or culture medium, Fraction of peptide remaining after 24 hours: hMSC Cells) [%]	remaining at 24 h, 50 µM (MMP-14; cells or culture medium) [%]	remaining at 24 h, 50 µM (MMP-14; cells or culture medium, Fraction of peptide remaining after 24 hours: hMSC +Inhibitor) [%]	remaining after 24 h in the Cells condition for hMSCs (hMSCs; Figure 2B screen, 24 h, LC-MS) [%]	peptide remaining after 24 h, Cells condition, hMSCs (hMSCs; Figure 3C, LC-MS, N = 6) [%]	remaining at 24 h [1, 2] [%]	remaining at 24 h, 50 µM ([1]; hMSCs in culture with fresh media (Cells condition), media on hMSCs, 24 h, LC-MS, ratio to βFβA6, read-out: Fraction of peptide remaining after 24 hours: hMSC Cells) [%]	remaining at 24 h [1, 3] [%]	remaining at 24 h, 50 µM [1, 4] [%]	remaining at 24 h, 50 µM (MMP-14; [5]) [%]	remaining at 24 h, 50 µM (MMP-14; [6]) [%]	Fraction of peptide remaining after 24 hours: hMSC Cells (hMSCs; [7])	remaining at 24 h ([1]; hMSCs in culture with fresh media (Cells condition), Figure 3B heatmap, split-and-pool libraries KLVADX1X2ASAE (19 or 38 peptides per library) in media on hMSCs, 24 h, LC-MS, ratio to βFβA6, N = 2, read-out: Fraction of peptide remaining after 24 hours: hMSC Cells) [%]	remaining at 24 h ([1]; hUVECs in culture with fresh media (Cells condition), Figure 3B heatmap, split-and-pool libraries KLVADX1X2ASAE in media on hUVECs, 24 h, LC-MS, ratio to βFβA6, N = 2, read-out: Fraction of peptide remaining after 24 hours: hUVEC Cells) [%]	peptide remaining, Cells + MMP-14 inhibitor, hMSCs (hMSCs; 24 h, 50 µM) [%]	Fraction of peptide remaining after 24 hours: hMSC +Inhibitor (hMSCs; Figure 3C, 50 µM peptide, media on hMSCs with MMP-14 inhibitor NSC 405 020 10 µM, 24 h, LC-MS, N = 6)	metabolised at 24 h ([1]; hMSCs in culture with fresh media (Cells condition), Figure 2B screen, hMSCs, 24 h, LC-MS, read-out: amount of degradation in the Cells condition) [%]	SMILES
87	39	100	82	–	–	–	–	–	–	–	–	–	–	–	–	–	–	CSCC[C@H](NC(=O)[C@H](CC(C)C)NC(=O)[C@H](CC(=O)O)NC(=O)[C@H](C)NC(=O)[C@@H](NC(=O)[C@H](CC(C)C)NC(=O)[C@H](CCCCN)NC(=O)CCNC(C)=O)C(C)C)C(=O)N[C@@H](C)C(=O)N[C@@H](CO)C(=O)N[C@@H](C)C(=O)N[C@@H](CCC(=O)O)C(=O)NCCC(N)=O [KLVAD-LM] (Ac-[βAla]KLVADLMASAE[βAla]-NH2)
–	–	–	–	70	78	70	78	92	96	87	98	–	–	–	–	–	–	CC(=O)NCCC(=O)N[C@@H](CCCCN)C(=O)N[C@@H](CC(C)C)C(=O)N[C@H](C(=O)N[C@@H](C)C(=O)N[C@@H](CC(=O)O)C(=O)N[C@@H](CC(N)=O)C(=O)N[C@@H](Cc1ccc(O)cc1)C(=O)N[C@@H](C)C(=O)N[C@@H](CO)C(=O)N[C@@H](C)C(=O)N[C@@H](CCC(=O)O)C(=O)NCCC(N)=O)C(C)C [KLVAD-NY] (Ac-[βAla]KLVADNYASAE[βAla]-NH2)
–	–	–	–	–	–	–	–	–	88	89	100	0.52	56	94	–	–	–	CC(=O)NCCC(=O)N[C@@H](CCCCN)C(=O)N[C@@H](CC(C)C)C(=O)N[C@H](C(=O)N[C@@H](C)C(=O)N[C@@H](CC(=O)O)C(=O)N1CCC[C@H]1C(=O)N[C@@H](Cc1ccc(O)cc1)C(=O)N[C@@H](C)C(=O)N[C@@H](CO)C(=O)N[C@@H](C)C(=O)N[C@@H](CCC(=O)O)C(=O)NCCC(N)=O)C(C)C [KLVAD-PY] (Ac-[βAla]KLVADPYASAE[βAla]-NH2)
–	–	–	–	–	35	39	–	69	–	–	95	0.35	–	–	78	0.78	61	CC[C@H](C)[C@H](NC(=O)CNC(=O)[C@H](CCC(N)=O)NC(=O)[C@@H]1CCCN1C(=O)CNC(=O)CCNC(C)=O)C(=O)N[C@@H](Cc1c[nH]c2ccccc12)C(=O)NCC(=O)N[C@@H](CCC(N)=O)C(=O)NCCC(N)=O [PanMMP, reference compound] (Ac-[βAla]GPQGIWGQ[βAla]-NH2)
